Assay results as given in ChEMBL document CHEMBL5724914, “Linking interpersonal differences in gut microbiota composition and drug biotransformation activity” (2024).

Experiment: (§1) The drug is tested on Z-030 corresponding to mouse gut metagenome with ENA study accession number: PRJEB37062 and ENA sample accession number: ERS12561829 for biotransformation under anaerobic condition. The drug concentrations were measured over 9 timepoints collected between 0 and 24 hours of incubation by liquid-chromatography-coupled mass spectrometry (LC–MS)
Details: 2 µM
Note: call rule not given here.

Row | Bacterial Biotransformation | SMILES
1 | Compound NOT metabolized | Cc1ccc(NC(=O)c2ccc(CN3CCN(C)CC3)cc2)cc1Nc1nccc(-c2cccnc2)n1 [IMATINIB]

Experiment: as §1, with “Z-029” for “Z-030”, “rat” for “mouse”, “ERS12561828” for “ERS12561829”
Details: 2 µM

Row | Bacterial Biotransformation | SMILES
2 | Compound NOT metabolized | Cc1ccc(NC(=O)c2ccc(CN3CCN(C)CC3)cc2)cc1Nc1nccc(-c2cccnc2)n1 [IMATINIB]

Experiment: as §1, with “Z-028” for “Z-030”, “ERS12561827” for “ERS12561829”
Details: 2 µM

Row | Bacterial Biotransformation | SMILES
3 | Compound NOT metabolized | Cc1ccc(NC(=O)c2ccc(CN3CCN(C)CC3)cc2)cc1Nc1nccc(-c2cccnc2)n1 [IMATINIB]

Experiment: as §1, with “Z-027” for “Z-030”, “to” for “to mouse gut”, “ERS12561826” for “ERS12561829”
Details: 2 µM

Row | Bacterial Biotransformation | SMILES
4 | Compound NOT metabolized | Cc1ccc(NC(=O)c2ccc(CN3CCN(C)CC3)cc2)cc1Nc1nccc(-c2cccnc2)n1 [IMATINIB]

Experiment: as §1, with “Z-026” for “Z-030”, “to” for “to mouse gut”, “ERS12561825” for “ERS12561829”
Details: 2 µM

Row | Bacterial Biotransformation | SMILES
5 | Compound NOT metabolized | Cc1ccc(NC(=O)c2ccc(CN3CCN(C)CC3)cc2)cc1Nc1nccc(-c2cccnc2)n1 [IMATINIB]

Experiment: as §1, with “Z-025” for “Z-030”, “rabbit” for “mouse”, “ERS12561824” for “ERS12561829”
Details: 2 µM

Row | Bacterial Biotransformation | SMILES
6 | Compound NOT metabolized | Cc1ccc(NC(=O)c2ccc(CN3CCN(C)CC3)cc2)cc1Nc1nccc(-c2cccnc2)n1 [IMATINIB]

Experiment: as §1, with “Z-024” for “Z-030”, “pig” for “mouse”, “ERS12561823” for “ERS12561829”
Details: 2 µM

Row | Bacterial Biotransformation | SMILES
7 | Compound NOT metabolized | Cc1ccc(NC(=O)c2ccc(CN3CCN(C)CC3)cc2)cc1Nc1nccc(-c2cccnc2)n1 [IMATINIB]

Experiment: as §1, with “Z-022” for “Z-030”, “ERS12561821” for “ERS12561829”
Details: 2 µM

Row | Bacterial Biotransformation | SMILES
8 | Compound NOT metabolized | Cc1ccc(NC(=O)c2ccc(CN3CCN(C)CC3)cc2)cc1Nc1nccc(-c2cccnc2)n1 [IMATINIB]

Experiment: as §1, with “Z-020” for “Z-030”, “rabbit” for “mouse”, “ERS12561819” for “ERS12561829”
Details: 2 µM

Row | Bacterial Biotransformation | SMILES
9 | Compound NOT metabolized | Cc1ccc(NC(=O)c2ccc(CN3CCN(C)CC3)cc2)cc1Nc1nccc(-c2cccnc2)n1 [IMATINIB]

Experiment: as §1, with “Z-018” for “Z-030”, “pig” for “mouse”, “ERS12561817” for “ERS12561829”
Details: 2 µM

Row | Bacterial Biotransformation | SMILES
10 | Compound NOT metabolized | Cc1ccc(NC(=O)c2ccc(CN3CCN(C)CC3)cc2)cc1Nc1nccc(-c2cccnc2)n1 [IMATINIB]

Experiment: as §1, with “Z-017” for “Z-030”, “ERS12561816” for “ERS12561829”
Details: 2 µM

Row | Bacterial Biotransformation | SMILES
11 | Compound NOT metabolized | Cc1ccc(NC(=O)c2ccc(CN3CCN(C)CC3)cc2)cc1Nc1nccc(-c2cccnc2)n1 [IMATINIB]

Experiment: as §1, with “Z-016” for “Z-030”, “ERS12561815” for “ERS12561829”
Details: 2 µM

Row | Bacterial Biotransformation | SMILES
12 | Compound NOT metabolized | Cc1ccc(NC(=O)c2ccc(CN3CCN(C)CC3)cc2)cc1Nc1nccc(-c2cccnc2)n1 [IMATINIB]

Experiment: as §1, with “Z-014” for “Z-030”, “rat” for “mouse”, “ERS12561814” for “ERS12561829”
Details: 2 µM

Row | Bacterial Biotransformation | SMILES
13 | Compound NOT metabolized | Cc1ccc(NC(=O)c2ccc(CN3CCN(C)CC3)cc2)cc1Nc1nccc(-c2cccnc2)n1 [IMATINIB]

Experiment: as §1, with “Z-013” for “Z-030”, “rabbit” for “mouse”, “ERS12561813” for “ERS12561829”
Details: 2 µM

Row | Bacterial Biotransformation | SMILES
14 | Compound NOT metabolized | Cc1ccc(NC(=O)c2ccc(CN3CCN(C)CC3)cc2)cc1Nc1nccc(-c2cccnc2)n1 [IMATINIB]

Experiment: as §1, with “Z-012” for “Z-030”, “to” for “to mouse gut”, “ERS12561812” for “ERS12561829”
Details: 2 µM

Row | Bacterial Biotransformation | SMILES
15 | Compound NOT metabolized | Cc1ccc(NC(=O)c2ccc(CN3CCN(C)CC3)cc2)cc1Nc1nccc(-c2cccnc2)n1 [IMATINIB]

Experiment: as §1, with “Z-011” for “Z-030”, “ERS12561811” for “ERS12561829”
Details: 2 µM

Row | Bacterial Biotransformation | SMILES
16 | Compound NOT metabolized | Cc1ccc(NC(=O)c2ccc(CN3CCN(C)CC3)cc2)cc1Nc1nccc(-c2cccnc2)n1 [IMATINIB]

Experiment: as §1, with “Z-010” for “Z-030”, “to” for “to mouse gut”, “ERS12561810” for “ERS12561829”
Details: 2 µM

Row | Bacterial Biotransformation | SMILES
17 | Compound NOT metabolized | Cc1ccc(NC(=O)c2ccc(CN3CCN(C)CC3)cc2)cc1Nc1nccc(-c2cccnc2)n1 [IMATINIB]

Experiment: as §1, with “Z-009” for “Z-030”, “pig” for “mouse”, “ERS12561809” for “ERS12561829”
Details: 2 µM

Row | Bacterial Biotransformation | SMILES
18 | Compound NOT metabolized | Cc1ccc(NC(=O)c2ccc(CN3CCN(C)CC3)cc2)cc1Nc1nccc(-c2cccnc2)n1 [IMATINIB]

Experiment: as §1, with “Z-008” for “Z-030”, “to” for “to mouse gut”, “ERS12561808” for “ERS12561829”
Details: 2 µM

Row | Bacterial Biotransformation | SMILES
19 | Compound NOT metabolized | Cc1ccc(NC(=O)c2ccc(CN3CCN(C)CC3)cc2)cc1Nc1nccc(-c2cccnc2)n1 [IMATINIB]

Experiment: as §1, with “Z-007” for “Z-030”, “rat” for “mouse”, “ERS12561807” for “ERS12561829”
Details: 2 µM

Row | Bacterial Biotransformation | SMILES
20 | Compound NOT metabolized | Cc1ccc(NC(=O)c2ccc(CN3CCN(C)CC3)cc2)cc1Nc1nccc(-c2cccnc2)n1 [IMATINIB]

Experiment: as §1, with “Z-006” for “Z-030”, “ERS12561806” for “ERS12561829”
Details: 2 µM

Row | Bacterial Biotransformation | SMILES
21 | Compound NOT metabolized | Cc1ccc(NC(=O)c2ccc(CN3CCN(C)CC3)cc2)cc1Nc1nccc(-c2cccnc2)n1 [IMATINIB]

Experiment: as §1, with “Z-005” for “Z-030”, “to” for “to mouse gut”, “ERS12561805” for “ERS12561829”
Details: 2 µM

Row | Bacterial Biotransformation | SMILES
22 | Compound NOT metabolized | Cc1ccc(NC(=O)c2ccc(CN3CCN(C)CC3)cc2)cc1Nc1nccc(-c2cccnc2)n1 [IMATINIB]

Experiment: as §1, with “Z-004” for “Z-030”, “to” for “to mouse gut”, “ERS12561804” for “ERS12561829”
Details: 2 µM

Row | Bacterial Biotransformation | SMILES
23 | Compound NOT metabolized | Cc1ccc(NC(=O)c2ccc(CN3CCN(C)CC3)cc2)cc1Nc1nccc(-c2cccnc2)n1 [IMATINIB]

Experiment: as §1, with “Z-003” for “Z-030”, “pig” for “mouse”, “ERS12561803” for “ERS12561829”
Details: 2 µM

Row | Bacterial Biotransformation | SMILES
24 | Compound NOT metabolized | Cc1ccc(NC(=O)c2ccc(CN3CCN(C)CC3)cc2)cc1Nc1nccc(-c2cccnc2)n1 [IMATINIB]

Experiment: as §1, with “Z-002” for “Z-030”, “rabbit” for “mouse”, “ERS12561802” for “ERS12561829”
Details: 2 µM

Row | Bacterial Biotransformation | SMILES
25 | Compound NOT metabolized | Cc1ccc(NC(=O)c2ccc(CN3CCN(C)CC3)cc2)cc1Nc1nccc(-c2cccnc2)n1 [IMATINIB]

Experiment: as §1, with “Z-001” for “Z-030”, “ERS12561801” for “ERS12561829”
Details: 2 µM

Row | Bacterial Biotransformation | SMILES
26 | Compound NOT metabolized | Cc1ccc(NC(=O)c2ccc(CN3CCN(C)CC3)cc2)cc1Nc1nccc(-c2cccnc2)n1 [IMATINIB]
